Test results as given in PubChem BioAssay (NCI).
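Values below derive from 48-hour exposures of cells grown in 96-well plates, with endpoints linearly interpolated between the two concentrations bracketing the appropriate inhibition level. GI50 marks 50% less growth. TGI: concentration producing complete growth inhibition.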

Key:
Assay in all cases: NCI tumour cell line growth inhibition, 48 h
[1] = system: COLO 205 colon
[2] = system: HCT-15 colon
[3] = system: HT29 colon
[4] = system: LOX IMVI melanoma
[5] = system: MOLT-4 leukemia
[6] = system: OVCAR-5 ovarian
[7] = system: SF-295 CNS
[8] = system: SK-MEL-28 melanoma
[9] = system: SK-MEL-5 melanoma
[10] = system: SNB-75 CNS
[11] = system: SR leukemia
[12] = system: U251 CNS
[13] = system: UACC-257 melanoma
[14] = system: UO-31 renal
[15] = system: DU-145 prostate
[16] = system: MCF7 breast
[17] = system: MDA-N
[18] = system: PC-3 prostate
[19] = system: HS 578T breast

SMILES	TGI [1] [µM]	TGI [2] [µM]	TGI [3] [µM]	TGI [4] [µM]	TGI [5] [µM]	TGI [6] [µM]	TGI [7] [µM]	TGI [8] [µM]	TGI [9] [µM]	TGI [10] [µM]	TGI [11] [µM]	TGI [12] [µM]	TGI [13] [µM]	TGI [14] [µM]	TGI [15] [µM]	TGI [16] [µM]	TGI [17] [µM]	TGI [18] [µM]	TGI [19] [µM]	GI50 [15] [µM]
CCCc1c(C(=O)OCC)[nH]c(-c2ccc(-c3[nH]c(C(=O)OCC)c(CCC)c3C(=O)OCC)o2)c1C(=O)OCC	> 100	> 100	> 100	> 100	> 100	> 100	> 100	> 100	> 100	> 100	> 100	> 100	> 100	> 100						
COc1cc([C@@H]2c3cc4c(cc3[C@@H](NCc3ccccc3)C3COC(=O)[C@@H]32)OCO4)cc(OC)c1O (some centres undefined)	> 89	33.5	60.1	25.9	13	> 66.6	26.5	> 100	35.8	23.8	4.84	27.3	> 90.2	17.6						
CC(=O)OCC1OC(n2c(=O)n(-c3ccccc3)c(=O)c3cc(Br)cc(Br)c32)C(OC(C)=O)C(OC(C)=O)C1OC(C)=O (centres undefined)	> 100	> 100	> 100	> 100	> 100	> 100	> 100	> 100	> 100	> 100		> 100	> 100	> 100						
COc1ccc2c(c1)CC[C@@H]1[C@@H]2CC[C@]2(C)C(=O)/C(=C/c3ccncc3)C[C@@H]12	> 100	> 100	> 100	> 100	> 100	> 100	66.6	90.6	41.6	> 100	> 100	> 100	> 100	> 100	> 100	> 100	> 100	> 100		
O=c1cc(-c2ccccc2)oc2ccc(-c3ccc4oc(-c5ccccc5)cc(=O)c4c3)cc12	41.5	30	> 100	33.2	27.5	> 100	43.4		25.5					21.7		42.1	29		37.4	
O=C(Nc1nnc(-c2c(Cl)c(Cl)c(Cl)c(Cl)c2-c2nc3cc(C(=O)c4ccccc4)ccc3[nH]2)o1)c1ccccc1	24.5	36.7	63.6	32	72.5	55.7	24.3	45.4	18.5	41.4	20.9	26.5	85.7	> 100	47.8	36.5	12.6	28.3		
c1ccc(N=c2sc3ccccc3sc2=Nc2ccccc2)cc1	3.69	3.57	3.86	3.43	> 100	3.83	12.5	3.4	5.14	11.5	> 100	3.3	12.7	2.93	17.1		3.05	25.5	7.51	
CCOC(=O)CCC(C(=O)OCC)n1nnc2ccc(Nc3c(C)[n+]([O-])c4cc(Cl)ccc4[n+]3[O-])cc21 (centres undefined)	35.7	58.2	68.9	35.7	> 100	> 100	> 100			> 100	> 100	> 100	30.8	> 100	> 100	34.3		> 100	> 100	
COC(=O)n1c(=O)n(-c2ccccc2)c(=O)n1C(=O)Nc1ccccc1	> 100	> 100	> 100	> 100	> 100	> 100	> 100	> 100	> 100	> 100	> 100	> 100	> 100	> 100	> 100			> 100	> 100	
CCOC(=O)C(=Cc1cc(OC)ccc1OC)C(=O)OCC	17.2	22	17	19.5	37.9		26.5	17.1	17.2	5.95		20								
CC(C)Oc1ccc(CNC2=NCCO2)c2ccccc12	36.8	29.8	16.3		19.8	24.3	26.8	27.6	26.3	34.7	26.3	32.1	20	18.2	33.5	29.6			32	
O=C1/C(=C/c2ccccc2)N=C(c2ccccc2)N1C1Nc2cc3c(cc2S1)NC(N1C(=O)/C(=C/c2ccccc2)N=C1c1ccccc1)S3 (centres undefined)		82.9	> 100	> 100	88.2	> 100	> 100	> 100	> 100		> 100	> 100	> 100	> 100	> 100	> 100	> 100	> 100		
NC1=CN(Cc2ccccc2)C2=N/C(=C\c3ccccc3)C(=O)N12	> 100	> 100	> 100	> 100	> 100	> 100	> 100	> 100	> 100	> 100		> 100	> 100	> 100	> 100	> 100		> 100	> 100	
CCOC(=O)[C@H]1Nc2ccc(Cl)cc2[C@H]2OCC[C@@H]12	> 100	> 100	> 100	> 100	> 100	> 100	> 100	> 100	> 100	> 100		> 100	> 100							
Cc1cc(C)n(-c2nc3ccccc3c(=O)n2-c2ccccc2)n1	> 100	> 100	> 100	> 100	> 100	> 100	> 100	> 100	> 100	> 100	> 100	> 100	> 100	14.3	> 100	> 100	> 100	> 100		
O=C(O)c1nc2ccccc2nc1Nc1ccc(F)cc1	76.2	89.8	> 100	> 100	> 100	> 100	58.5	> 100	54.2	81.8	91.1	> 100	> 100	> 100	> 100	74.8		90.7	> 100	
COc1ccc(N2C(=O)c3cccnc3S2(=O)=O)cc1	> 100	> 100	> 100		> 100	> 100	> 100	> 100		> 100	> 100	> 100	> 100	> 100	> 100	> 100	> 100	> 100		
Cc1nc2ccccc2c(=O)n1NC(=S)Nc1cccc(Cl)c1	> 100	> 100	> 100	> 100	> 100	> 100	> 100	> 100	> 100	> 100	> 100	> 100	> 100	> 100						
Cc1nc(-c2nc(C)c(C(=O)NN(C)C)s2)sc1C(=O)NN(C)C	53.9	> 100	> 100	48.9	> 100	> 100	> 100	> 100	> 100	> 100	40.7	> 100	> 100	> 100						
NCCCCN(CCCN)Cc1ccccc1	> 100	> 100	> 100		> 100	> 100	> 100	> 100	> 100	> 100		> 100	> 100	> 100	> 100	> 100		> 100	> 100	
CC1(Br)C(=O)NC(=O)N(C2CC(N=[N+]=[N-])C(CO)O2)C1N=[N+]=[N-] (centres undefined)	> 100	> 100	> 100	> 100	> 100	> 100	> 100	> 100	> 100	> 100		> 100	> 100	> 100						
CC(C)C1SCc2nc3ccccc3n21 (centres undefined)	26.8	> 100	> 100	> 100	81.6	> 100	> 100	> 100	31			> 100	> 100	> 100	> 100	45.8	> 100	71.2	> 100	
COc1ccc2nc(NC(=O)C(=O)C(C(=O)c3ccccc3-c3ccccc3)C3OC(=O)c4ccccc43)sc2c1 (centres undefined)	39.6		> 100	35.4	89.5	35.9	> 100	51	31.1	35.1		25.9	> 100	47.4						
COc1ccc(OC)c(C#Cc2ccc(OC)c(C(=O)NCCc3ccc(F)cc3)c2)c1	> 100	> 100	> 100	> 100	> 100	> 100	> 100		> 100		> 100	> 100	> 100	> 100	> 100	> 100		> 100	> 100	> 100
CSCCCNC(=O)c1csc(-c2csc(CCN)n2)n1	> 100	> 100	> 100	> 100	> 100	> 100	> 100	> 100	> 100		> 100	> 100	> 100	> 100	> 100	> 100		> 100	> 100	
Cc1ccc2c(c1)SC(c1cc3c(cc1Br)OCO3)S2 (centres undefined)	> 31.6	> 31.6	> 31.6	> 31.6	> 31.6	> 31.6	> 31.6	> 31.6	> 31.6	6.73	> 31.6	> 31.6	> 31.6	> 31.6						
O=C1Nc2cc([N+](=O)[O-])ccc2C(=O)N2CCC[C@@H]12	> 100	> 100	> 100	> 100	> 100	> 100	> 100	> 100	> 100	> 100	> 100	> 100	> 100	> 100	> 100	> 100		> 100	> 100	
CCOC(CI)O[C@@H]1C=C[C@H](OC(C)=O)C1 (some centres undefined)	> 100	> 100	> 100		> 100	> 100	> 100	> 100		> 100		> 100	> 100	> 100	> 100	> 100	> 100	> 100		
O=C(Nc1nc2ccccc2n1Cc1ccc(Cl)cc1)NC12CC3CC(CC(C3)C1)C2	> 100	> 100	> 100	> 100	> 100	> 100	27.3	68.3	> 100	22.9	> 100	46.9	> 100	> 100						
